Consider 22 molecules from US20230279016A1, “Tetrahydropyrazolopyrimidines and Related Analogs for Inhibiting YAP/TAZ-TEAD” (THE KATHOLIEKE UNIVERSITEIT LEUVEN, priority 2021, published 2023).

Common to all, as to assay type: cell-based
Assay [1] relates to NCI-H226 mesothelioma cell line. Put plainly: Mesothelioma cell line proliferation assay, NCI-H226. The following applies: NCI-H226, 6 days with compound, cell viability by ATPlite. On the procedure: (§1) Mesothelioma cell lines, NCI-H226 and NCI-H2052 (all sourced from the ATCC cell culture collection) are plated in 96-well plates (Corning® 96 Well White Polystyrene Microplate clear flat bottom, white polystyrene (TC-Treated)), at 1500 cells/well in full medium (RPMI 1640 ATCC modification with L-glutamine, HEPES, Phenol Red, Sodium Pyruvate, High glucose, Low sodium bicarbonate and 10% fetal bovine serum). Cells are incubated overnight at 37° C. in an incubator with 5% CO2. Then compounds, dissolved in DMSO, are added in dose-response. Cells are incubated with compound dilutions for another 6 days at 37° C. in an incubator with 5% CO2. Cell viability is quantitated using the ATPlite kit (Perkin-Elmer) and the luminescence is read-out using an Envision instrument (Perkin-Elmer). The amount of relative light units produced using the ATPlite kit is used to calculated percent of inhibition.
(§2) The activities of example compounds tested are depicted in the table below. The activity ranges A, B and C refer to EC50 values in the mesothelioma cell line proliferation assay as described as follows: “A”: EC50 <1 μM; “B” : 1 μM EC50 ≤10 μM and “C” : EC50 >10 μM. NT: not tested.
(In general: Cellular ATP, detected with luciferase, serves as a proxy for viable cell number.)

Assay [2] concerns YAP/TAZ-TEAD transcription. Put plainly: Reporter gene assay for measuring the inhibition of YAP/TAZ-TEAD transcription (TEAD-responsive element luciferase reporter in Hek293T cells). The following applies: Hek293T cells transiently transfected with TEAD-responsive element luciferase reporter, 24 hours incubation. The procedure, abridged: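 Hek293T cells transiently transfected with TEAD-responsive luciferase reporter, exposed to compound for 24 h at 37° C/5% CO2, then read by luminescence. Percent inhibition normalized to vehicle (0%) and positive control inhibitor (100%); EC50 reported as activity ranges.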
In general terms: Reporter assays use an easily measured gene product as a stand-in for the process of interest.

In assay [3] the test system is NCI-H2052 mesothelioma cell line. Put plainly: Mesothelioma cell line proliferation assay, NCI-H2052. The following applies: NCI-H2052, 6 days with compound, cell viability by ATPlite. On the procedure: as §1, §2

pEC50: −log10 of the molar value.

A word on the pEC50: it is −log10 of the EC50, conventionally taken in molar units. As to `C=CC(=O)NCC1CN(c2ccc(SC(F)(F)F)cc2)c2ccnn2C1` (single isomer, unassigned) [Cpd. No. 020-En2, (R)- or (S)-N-((4-(4-((trifluoromethyl)thio)phenyl)-4,5,6,7-tetrahydropyrazolo[1,5-a]pyrimidin-6-yl)methyl)acrylamide], the results for the pEC50 in assay [1], in assay [2] and in assay [3] were less than 5.00, greater than 6.00 and 5.00 to 6.00, respectively.
On the same counts, the results for `C=CC(=O)NCC1CN(c2ccc(C3CC3)cc2)c2ccnn2C1` (single isomer, unassigned) [Cpd. No. 022-En2, (R)- or (S)-N-((4-(4-cyclopropylphenyl)-4,5,6,7-tetrahydropyrazolo[1,5-a]pyrimidin-6-yl)methyl)acrylamide] are greater than 6.00, greater than 6.00 and less than 5.00.
Take `C=CC(=O)NCC1CN(c2ccc(C(F)(F)F)cc2)c2cc(C(F)(F)F)nn2C1` (stereo not drawn) [Cpd. No. 034, N-((2-(trifluoromethyl)-4-(4-(trifluoromethyl)phenyl)-4,5,6,7-tetrahydropyrazolo[1,5-a]pyrimidin-6-yl)methyl)acrylamide]: the pEC50 was greater than 6.00 in assay [1] (Homo sapiens, NCI-H226, 144 h); greater than 6.00 in assay [2] (Homo sapiens, HEK-293T, 24 h); greater than 6.00 in assay [3] (Homo sapiens, NCI-H2052, 144 h).
For `C=CC(=O)NCC1CN(c2ccc(Cl)cc2)c2ccnn2C1` (stereo not drawn) [Cpd. No. 005, N-((4-(4-chlorophenyl)-4,5,6,7-tetrahydropyrazolo[1,5-a]pyrimidin-6-yl)methyl)acrylamide], the pEC50 in assay [1] (Homo sapiens, NCI-H226, 144 h) was greater than 6.00; in assay [2] (Homo sapiens, HEK-293T, 24 h), greater than 6.00; in assay [3] (Homo sapiens, NCI-H2052, 144 h) it was greater than 6.00.
Take `C=CC(=O)NCC1CN(c2ccc(C(F)(F)F)cc2)c2cc(C)nn2C1` (stereo not drawn) [Cpd. No. 029, N-((2-methyl-4-(4-(trifluoromethyl)phenyl)-4,5,6,7-tetrahydropyrazolo[1,5-a]pyrimidin-6-yl)methyl)acrylamide]: the pEC50 in assay [1] (Homo sapiens, NCI-H226, 144 h) was greater than 6.00; in assay [2] (Homo sapiens, HEK-293T, 24 h), greater than 6.00; in assay [3] (Homo sapiens, NCI-H2052, 144 h) it was greater than 6.00.
`C=CC(=O)NCC1CNc2c(CC#Cc3ccccc3)cnn2C1` (stereo not drawn) [Cpd. No. 059, N-((3-(3-phenylprop-2-yn-1-yl)-4,5,6,7-tetrahydropyrazolo[1,5-a]pyrimidin-6-yl)-methyl)acrylamide]: the pEC50 in assay [1] (Homo sapiens, NCI-H226, 144 h) was less than 5.00; in assay [2] (Homo sapiens, HEK-293T, 24 h), greater than 6.00; in assay [3] (Homo sapiens, NCI-H2052, 144 h), less than 5.00.
For the molecule `C=CC(=O)NCC1CN(c2ccc(C(C)C)cc2)c2ccnn2C1` (single isomer, unassigned) [Cpd. No. 013-En1, (R)- or (S)-N-((4-(4-isopropylphenyl)-4,5,6,7-tetrahydropyrazolo[1,5-a]pyrimidin-6-yl)methyl)acrylamide], the pEC50 in assay [1], in assay [2] and in assay [3] was greater than 6.00 each time.
For `C=CC(=O)NCC1CN(c2ccc(C(F)(F)F)cc2F)c2ccnn2C1` (stereo not drawn) [Cpd. No. 016, N-((4-(2-fluoro-4-(trifluoromethyl)phenyl)-4,5,6,7-tetrahydropyrazolo[1,5-a]pyrimidin-6-yl)methyl)acrylamide], the pEC50 was greater than 6.00 in assay [1] (Homo sapiens, NCI-H226, 144 h); greater than 6.00 in assay [2] (Homo sapiens, HEK-293T, 24 h); greater than 6.00 in assay [3].
Consider `C=CC(=O)NCC1Cc2c(cnn2C(F)F)N(c2ccc(C(F)(F)F)cc2)C1` (single isomer, unassigned) [Cpd. No. 084-En2, (R)- or (S)-N-((1-(difluoromethyl)-4-(4-(trifluoromethyl)phenyl)-4,5,6,7-tetrahydro-1H-pyrazolo[4,3-b]pyridin-6-yl)methyl)acrylamide], for which the pEC50 in assay [1], in assay [2] and in assay [3] was greater than 6.00 each time.
Consider `C=CC(=O)NCC1Cc2nn(C)cc2N(c2ccc(OC(F)(F)F)cc2)C1` (stereo not drawn) [Cpd. No. 071, N-((2-methyl-4-(4-(trifluoromethoxy)phenyl)-4,5,6,7-tetrahydro-2H-pyrazolo[4,3-b]pyridin-6-yl)methyl)acrylamide], for which the pEC50 in assay [1] (Homo sapiens, NCI-H226, 144 h) is greater than 6.00; in assay [2] (Homo sapiens, HEK-293T, 24 h), greater than 6.00; in assay [3] (Homo sapiens, NCI-H2052, 144 h) it was greater than 6.00.
`C=CC(=O)NCC1CN(c2ccc(OC(F)(F)F)cc2)c2ccnn2C1` (single isomer, unassigned) [Cpd. No. 011-En1, (R)- or (S)-N-((4-(4-(trifluoromethoxy)phenyl)-4,5,6,7-tetrahydropyrazolo[1,5-a]pyrimidin-6-yl)methyl)acrylamide]: the pEC50 in assay [1], in assay [2] and in assay [3] was greater than 6.00 throughout.
On to `C=CC(=O)NCC1CN(c2ccc(OC(F)F)cc2)c2ccnn2C1` (single isomer, unassigned) [Cpd. No. 012-En1, (R)- or (S)-N-((4-(4-(difluoromethoxy)phenyl)-4,5,6,7-tetrahydropyrazolo[1,5-a]pyrimidin-6-yl)methyl)acrylamide], for which the pEC50 in assay [1], in assay [2] and in assay [3] was greater than 6.00 throughout.
As for `C=CC(=O)NCC1CN(c2ccc(OC(F)(F)F)cc2F)c2ccnn2C1` (single isomer, unassigned) [Cpd. No. 019-En1, (R)- or (S)-N-((4-(2-fluoro-4-(trifluoromethoxy)phenyl)-4,5,6,7-tetrahydropyrazolo[1,5-a]pyrimidin-6-yl)methyl)acrylamide], the pEC50 in assay [1] (Homo sapiens, NCI-H226, 144 h) was greater than 6.00; in assay [2] (Homo sapiens, HEK-293T, 24 h), greater than 6.00; in assay [3], greater than 6.00.
Take `CS(=O)(=O)NCC1CN(c2ccc(C(F)(F)F)cc2)c2ccnn2C1` (stereo not drawn) [Cpd. No. 027, N-((4-(4-(trifluoromethyl)phenyl)-4,5,6,7-tetrahydropyrazolo[1,5-a]pyrimidin-6-yl)methyl)methanesulfonamide]: the pEC50 in assay [1] (Homo sapiens, NCI-H226, 144 h) is less than 5.00; in assay [2] (Homo sapiens, HEK-293T, 24 h) it was less than 4.70; in assay [3] (Homo sapiens, NCI-H2052, 144 h) it was less than 5.00.
For the molecule `FC(F)(F)c1ccc(N2CC(C3CC(Br)=NO3)Cn3nccc32)cc1` (single isomer, unassigned) [Cpd. No. 086-Dia2, 3-bromo-5-(4-(4-(trifluoromethyl)phenyl)-4,5,6,7-tetrahydropyrazolo[1,5-a]pyrimidin-6-yl)-4,5-dihydroisoxazole], the pEC50 in assay [1], in assay [2] and in assay [3] was greater than 6.00 throughout.
With `C=CC(=O)NC1CN(c2ccc(C(F)(F)F)cc2)c2ccnn2C1` (stereo not drawn) [Cpd. No. 061, N-(4-(4-(trifluoromethyl)phenyl)-4,5,6,7-tetrahydropyrazolo[1,5-a]pyrimidin-6-yl)acrylamide], the pEC50 was greater than 6.00 in assay [1] (Homo sapiens, NCI-H226, 144 h); greater than 6.00 in assay [2] (Homo sapiens, HEK-293T, 24 h); greater than 6.00 in assay [3] (Homo sapiens, NCI-H2052, 144 h).
For `C=CC(=O)NCC1CN(Cc2cccc(C(F)(F)F)c2)c2ccnn2C1` (stereo not drawn) [Cpd. No. 052, N-((4-(3-(trifluoro-methyl)benzyl)-4,5,6,7-tetrahydropyrazolo[1,5-a]pyrimidin-6-yl)methyl)acrylamide], the pEC50 was greater than 6.00 in assay [1] (Homo sapiens, NCI-H226, 144 h); greater than 6.00 in assay [2] (Homo sapiens, HEK-293T, 24 h); greater than 6.00 in assay [3] (Homo sapiens, NCI-H2052, 144 h).
On to `C=CC(=O)NC[C@H]1Cc2nn(C(F)F)cc2N(c2ccc(C(F)(F)F)cc2)C1` (single isomer, unassigned) [Cpd. No. 085-En1, (R)- or (S)-N-(2-(difluoromethyl)-4-(4-(trifluoromethyl)phenyl)-4,5,6,7-tetrahydro-2H-pyrazolo[4,3-b]pyridin-6-yl)methyl)acrylamide], for which the pEC50 in assay [1], in assay [2] and in assay [3] was greater than 6.00 each time.
`C=CC(=O)NCC1Cc2nn(Cc3cccc(C(N)=O)c3)cc2N(c2ccc(C(F)(F)F)cc2)C1` (stereo not drawn) [Cpd. No. 081, 3-((6-(acrylamidomethyl)-4-(4-(trifluoromethyl)-phenyl)-4,5,6,7-tetrahydro-2H-pyrazolo[4,3-b]pyridin-2-yl)methyl)benzamide]: the negative-log EC50 (pEC50) is greater than 6.00 in assay [1] (Homo sapiens, NCI-H226, 144 h); greater than 6.00 in assay [2] (Homo sapiens, HEK-293T, 24 h); greater than 6.00 in assay [3] (Homo sapiens, NCI-H2052, 144 h).
As for `C=CC(=O)NCC1CN(c2ccc(C(F)(F)F)cc2)c2cc(C3CC3)nn2C1` (stereo not drawn) [Cpd. No. 031, N-((2-cyclopropyl-4-(4-(trifluoromethyl)phenyl)-4,5,6,7-tetrahydropyrazolo[1,5-a]pyrimidin-6-yl)methyl)acrylamide], the pEC50 in assay [1] (Homo sapiens, NCI-H226, 144 h) is greater than 6.00; in assay [2] (Homo sapiens, HEK-293T, 24 h) it was greater than 6.00; in assay [3] (Homo sapiens, NCI-H2052, 144 h), greater than 6.00.
On to `C=CC(=O)NCC1Cc2c(cnn2C(F)F)N(c2ccc(C(F)(F)F)cc2)C1` (single isomer, unassigned) [Cpd. No. 084-En1, (R)- or (S)-N-((1-(difluoromethyl)-4-(4-(trifluoromethyl)phenyl)-4,5,6,7-tetrahydro-1H-pyrazolo[4,3-b]pyridin-6-yl)methyl)acrylamide], for which the pEC50 is greater than 6.00 in assay [1] (Homo sapiens, NCI-H226, 144 h); greater than 6.00 in assay [2] (Homo sapiens, HEK-293T, 24 h); greater than 6.00 in assay [3] (Homo sapiens, NCI-H2052, 144 h).
`C=CC(=O)NCC1CN(c2ccc(C(F)(F)F)nc2)c2ccnn2C1` (stereo not drawn) [Cpd. No. 007, N-((4-(6-(trifluoromethyl)pyridin-3-yl)-4,5,6,7-tetrahydropyrazolo[1,5-a]pyrimidin-6-yl)methyl)acrylamide]: the pEC50 in assay [1] (Homo sapiens, NCI-H226, 144 h) is less than 5.00; in assay [2] (Homo sapiens, HEK-293T, 24 h) it was greater than 6.00; in assay [3] (Homo sapiens, NCI-H2052, 144 h), less than 5.00.
